Results as given in patent publication US20040023994A1 (priority 2002, published 2004).
Read-outs that look alike come from different tables or passages of the source.

Columns and labels:
MDA-MB-231/ATCC = settings: Breast, NCI database, cited from earlier work; for CC50: read-out: LC50 (the source's name)
OVCAR-8 = settings: OVCAR-8, Ovarian, NCI database, cited from earlier work; for CC50: read-out: LC50 (the source's name)
SF-539 = settings: SF-539, CNS, NCI database, cited from earlier work; for CC50: read-out: LC50 (the source's name)
SK-OV-3 = settings: SK-OV-3, Ovarian, NCI database, cited from earlier work; for CC50: read-out: LC50 (the source's name)
TK-10 = settings: TK-10, Renal, NCI database, cited from earlier work; for CC50: read-out: LC50 (the source's name)
IGR-OV1 = settings: IGR-OV1, Ovarian, NCI database, cited from earlier work; for CC50: read-out: LC50 (the source's name)
OVCAR-5 [1] = settings: OVCAR-5, Ovarian, NCI database, cited from earlier work; for CC50: read-out: LC50 (the source's name)
MDA-MB-435 = settings: MDA-MB-435, Breast, NCI database, cited from earlier work; for CC50: read-out: LC50 (the source's name)
CAKI-1 [2] = settings: CAKI-1, Renal, NCI database, cited from earlier work; for CC50: read-out: LC50 (the source's name)
UO-31 = settings: UO-31, Renal, NCI database, cited from earlier work; for CC50: read-out: LC50 (the source's name)
[3] = test system: Heterozygous nude CD-1 male mice; assay: Intestinal pathological analysis (crypt epithelial cell apoptosis) in treated mice; settings: multiple doses
Description: Heterozygous nude CD-1 male mice were treated (i.p.) with multiple doses consisting of either one dose daily for three consecutive days (cis-AVTP or trans-AVTG, 21.25 μmol/kg, 6-TG, 8.5 or 21.25 μmol/kg, or vehicle; one cycle), or one dose daily for three consecutive days, repeated again five days later (cis-AVTP, trans-AVTG or 6-TG, 8.5 or 21.25 μmol/kg, or vehicle; two cycles).
The mice were sacrificed 24 h after the last treatment. Urine was collected for 24 h before initiation of treatment and every 24 h thereafter until the mice were sacrificed. Blood was collected by cardiac puncture and blood cells counted. Sections of liver, kidney, intestines, stomach and sternum were stained with hematoxylin and eosin and subjected to pathological analysis. Bone marrow smears were prepared for assessment of bone marrow cellularity. Liver function was evaluated by measuring alanine aminotransferase-(ALT) and aspartate aminotransferase (AST) activities in plasma. Kidney function was evaluated by measuring blood urea nitrogen in plasma and γ-glutamyltransferase activity and glucose levels in urine.

PC-3 = type: cell-based; settings: PC-3, Prostate, 48 h
HCT-116 = settings: for CC50: read-out: LC50
786-0 = settings: for CC50: read-out: LC50
HOP-92 = settings: for CC50: read-out: LC50
SK-MEL-28 = settings: for CC50: read-out: LC50
CAKI-1 [4] = settings: for CC50: read-out: LC50
UACC-257 = settings: for CC50: read-out: LC50
U251 = settings: for CC50: read-out: LC50
SF-295 = settings: for CC50: read-out: LC50
COLO 205 = settings: for CC50: read-out: LC50
OVCAR-5 [5] = settings: for CC50: read-out: LC50
[6] = HOP-92, Non-Small Cell Lung, 48 h

## Sc1ncnc2nc[nH]c12 [6-MP, 6-mercaptopurine]
MDA-MB-231/ATCC
  CC50: > 100 µM
  GI50: 16.4 µM
  TGI: >100 µM
OVCAR-8
  GI50: 2.44 µM
  TGI: >100 µM
  CC50: > 100 µM
SF-539
  GI50: 2.38 µM
  TGI: >100 µM
  CC50: > 100 µM
SK-OV-3
  GI50: 0.97 µM
  TGI: >100 µM
  CC50: > 100 µM
TK-10
  GI50: 1.83 µM
  TGI: >100 µM
  CC50: > 100 µM
IGR-OV1
  GI50: 8.59 µM
  TGI: >100 µM
  CC50: > 100 µM
OVCAR-5 [1]
  GI50: 7.85 µM
  TGI: >100 µM
  CC50: > 100 µM
MDA-MB-435
  GI50: 1.4 µM
  TGI: >100 µM
  CC50: > 100 µM
CAKI-1 [2]
  GI50: 2.36 µM
  TGI: >100 µM
  CC50: > 100 µM
UO-31
  GI50: 6.52 µM
  TGI: >100 µM
  CC50: > 100 µM

## Nc1nc2nc[nH]c2c(=S)[nH]1 [6-TG, 6-thioguanine]
[3]
  crypt epithelial apoptosis, large intestines: considerable crypt cell apoptosis
  crypt epithelial cell apoptosis, small intestines: extensively
MDA-MB-231/ATCC
  CC50: > 100 µM
  GI50: 1.94 µM
  TGI: >100 µM
OVCAR-8
  GI50: 0.69 µM
  TGI: 60.0 µM
  CC50: > 100 µM
SF-539
  GI50: 1.02 µM
  TGI: 68.4 µM
  CC50: > 100 µM
SK-OV-3
  GI50: 0.54 µM
  TGI: 16.4 µM
  CC50: > 100 µM
TK-10
  GI50: 1.04 µM
  TGI: 78.3 µM
  CC50: > 100 µM
IGR-OV1
  GI50: 4.79 µM
  TGI: >100 µM
  CC50: > 100 µM
OVCAR-5 [1]
  GI50: 0.65 µM
  TGI: 47.5 µM
  CC50: > 100 µM
MDA-MB-435
  GI50: 0.84 µM
  TGI: 31.9 µM
  CC50: > 100 µM
CAKI-1 [2]
  GI50: 0.53 µM
  TGI: 15.6 µM
  CC50: > 100 µM
UO-31
  GI50: 1.48 µM
  TGI: 32.3 µM
  CC50: > 100 µM

## CC(=O)C=CSc1ncnc2nc[nH]c12 [cis-AVTP, 6-(2-acetylvinylthio) purine]
PC-3; Homo sapiens
  GI50: 2.05 µM
PC-3; Homo sapiens, read-out: LC50 (the source's name)
  CC50: 85.1 µM
PC-3
  TGI: 10.2 µM
HCT-116; HCT-116, Colon, 48 h
  TGI: 1.89 µM
HCT-116; Homo sapiens, HCT-116, 48 h
  GI50: 0.51 µM
  CC50: 4.73 µM
786-0; 786-0, Renal, 48 h
  TGI: 3.48 µM
786-0; Homo sapiens, 786-0, 48 h
  GI50: 0.37 µM
  CC50: 24.9 µM
HOP-92; [6]
  TGI: 5.45 µM
HOP-92; Homo sapiens, HOP-92, 48 h
  GI50: 1.69 µM
  CC50: 32.9 µM
SK-MEL-28; Homo sapiens, SK-MEL-28, 48 h
  GI50: 1.84 µM
  CC50: 9.58 µM
SK-MEL-28; SK-MEL-28, Melanoma, 48 h
  TGI: 4.19 µM
[3]
  crypt epithelial apoptosis, large intestines: no increase
  crypt epithelial cell apoptosis, small intestines: increased slightly
CAKI-1 [4]; CAKI-1, Renal, 48 h
  TGI: 0.55 µM
CAKI-1 [4]; Homo sapiens, CAKI-1, 48 h
  GI50: 0.11 µM
  CC50: 2.85 µM
UACC-257; Homo sapiens, UACC-257, 48 h
  GI50: 2.4 µM
  CC50: > 100 µM
UACC-257; UACC-257, Melanoma, 48 h
  TGI: 27.4 µM
U251; Homo sapiens, U-251, 48 h
  GI50: 2.74 µM
  CC50: 56.3 µM
U251; U251, CNS, 48 h
  TGI: 10.2 µM
SF-295; Homo sapiens, SF-295, 48 h
  GI50: 0.56 µM
  CC50: 57.8 µM
SF-295; SF-295, CNS, 48 h
  TGI: 11.2 µM
COLO 205; COLO 205, Colon, 48 h
  TGI: 1.70 µM
COLO 205; Homo sapiens, COLO 205, 48 h
  GI50: 0.46 µM
  CC50: 4.74 µM
LOX IMVI; Homo sapiens, 48 h
  GI50: 0.03 µM
LOX IMVI; Homo sapiens, 48 h, read-out: LC50
  CC50: > 100 µM
LOX IMVI; Melanoma, 48 h
  TGI: 2.23 µM
OVCAR-5 [5]; Homo sapiens, OVCAR-5, 48 h
  GI50: 1.31 µM
  CC50: 6.57 µM
OVCAR-5 [5]; OVCAR-5, Ovarian, 48 h
  TGI: 2.94 µM

## CC(=O)C=CSc1nc(N)nc2nc[nH]c12 [trans-AVTG, 6-(2-acetylvinylthio) guanine]
PC-3
  GI50: 3.96 µM
  TGI: 19.7 µM
HCT-116; HCT-116, Colon, 48 h
  GI50: 0.67 µM
  TGI: 3.01 µM
  CC50: 14.7 µM
786-0; 786-0, Renal, 48 h
  GI50: 0.98 µM
  TGI: 21.9 µM
  CC50: > 100 µM
HOP-92; [6]
  GI50: 3.01 µM
  TGI: 19.4 µM
  CC50: 50 µM
SK-MEL-28; SK-MEL-28, Melanoma, 48 h
  GI50: 11.6 µM
  TGI: 24.8 µM
  CC50: 52.7 µM
CAKI-1 [4]; CAKI-1, Renal, 48 h
  GI50: 0.16 µM
  TGI: 0.51 µM
  CC50: 13.7 µM
UACC-257; UACC-257, Melanoma, 48 h
  GI50: 11.6 µM
  TGI: >100 µM
  CC50: > 100 µM
U251; U251, CNS, 48 h
  GI50: 6.55 µM
  TGI: 48.4 µM
  CC50: > 100 µM
SF-295; SF-295, CNS, 48 h
  GI50: 0.43 µM
  TGI: 0.92 µM
  CC50: 82.9 µM
COLO 205; COLO 205, Colon, 48 h
  GI50: 1.87 µM
  TGI: 3.98 µM
  CC50: 8.43 µM
LOX IMVI; Melanoma, 48 h
  GI50: 0.2 µM
  TGI: 2.39 µM
LOX IMVI; read-out: LC50, Melanoma, 48 h
  CC50: 82.5 µM
OVCAR-5 [5]; OVCAR-5, Ovarian, 48 h
  GI50: 0.54 µM
  TGI: 6.04 µM
  CC50: 57.7 µM
